Columns and labels:
[1] = tested on: LoVo; assay: Inhibition of tumor volume in human LoVo cell xenografted in mice at 100 mg/kg, po; conditions: Mus musculus, read-out: Inhibition
[2] = Percent of unbound ligand in rat plasma at 5 mg/kg, po and 2 mg/kg, iv; type: ADME, organism-based
[3] = Volume of distribution in rat at 5 mg/kg, po and 2 mg/kg, iv; type: ADME, organism-based; conditions: in vivo, read-out: Vdss
[4] = Plasma clearance in mouse at 5 mg/kg, po and 2 mg/kg, iv; type: ADME, organism-based
[5] = Bioavailability in rat at 5 mg/kg, po and 2 mg/kg, iv; type: ADME, organism-based; conditions: in vivo
[6] = target: Epidermal growth factor receptor (Homo sapiens, UniProt P00533); assay: Inhibitory activity against EGFR
Epidermal growth factor receptor, sequence (P00533 whole entry): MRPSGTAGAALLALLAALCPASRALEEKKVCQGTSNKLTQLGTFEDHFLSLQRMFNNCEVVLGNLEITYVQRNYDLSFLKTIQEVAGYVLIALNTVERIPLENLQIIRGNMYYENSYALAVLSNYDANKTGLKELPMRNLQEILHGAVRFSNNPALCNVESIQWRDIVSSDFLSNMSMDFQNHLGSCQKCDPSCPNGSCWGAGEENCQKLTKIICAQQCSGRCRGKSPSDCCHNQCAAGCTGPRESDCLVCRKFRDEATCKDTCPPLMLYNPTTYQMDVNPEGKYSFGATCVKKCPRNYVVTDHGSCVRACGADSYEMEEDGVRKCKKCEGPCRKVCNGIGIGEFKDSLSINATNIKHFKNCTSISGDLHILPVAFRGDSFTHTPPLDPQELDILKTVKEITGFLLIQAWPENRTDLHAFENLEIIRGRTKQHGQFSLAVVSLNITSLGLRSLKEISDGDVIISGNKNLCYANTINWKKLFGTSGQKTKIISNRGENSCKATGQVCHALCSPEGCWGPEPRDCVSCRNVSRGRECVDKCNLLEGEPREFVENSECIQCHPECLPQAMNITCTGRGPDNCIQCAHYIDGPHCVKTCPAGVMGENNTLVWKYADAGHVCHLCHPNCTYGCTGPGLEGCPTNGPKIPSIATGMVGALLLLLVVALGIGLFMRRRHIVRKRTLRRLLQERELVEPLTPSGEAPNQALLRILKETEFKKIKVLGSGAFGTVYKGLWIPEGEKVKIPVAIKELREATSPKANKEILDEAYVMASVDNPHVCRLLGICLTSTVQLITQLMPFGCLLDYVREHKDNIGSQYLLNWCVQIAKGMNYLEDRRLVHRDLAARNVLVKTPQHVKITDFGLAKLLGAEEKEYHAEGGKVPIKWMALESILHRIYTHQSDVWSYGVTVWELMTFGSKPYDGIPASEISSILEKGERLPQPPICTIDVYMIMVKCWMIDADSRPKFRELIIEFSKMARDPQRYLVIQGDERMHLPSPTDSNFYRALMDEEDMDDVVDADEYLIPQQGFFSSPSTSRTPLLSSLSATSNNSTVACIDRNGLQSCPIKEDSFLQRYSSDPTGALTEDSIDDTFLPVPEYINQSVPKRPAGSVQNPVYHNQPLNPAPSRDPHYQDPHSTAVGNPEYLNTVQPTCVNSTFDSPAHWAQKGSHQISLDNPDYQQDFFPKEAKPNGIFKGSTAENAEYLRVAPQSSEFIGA

[7] = Bioavailability in mouse at 5 mg/kg, po and 2 mg/kg, iv; type: ADME, organism-based; conditions: in vivo
[8] = Half life in mouse at 5 mg/kg, po and 2 mg/kg, iv; type: ADME, organism-based; conditions: in vivo
[9] = Volume of distribution in mouse at 5 mg/kg, po and 2 mg/kg, iv; type: ADME, organism-based; conditions: in vivo, read-out: Vdss
[10] = Half life in rat at 5 mg/kg, po and 2 mg/kg, iv; type: ADME, organism-based; conditions: in vivo
[11] = Percent of unbound ligand in mouse plasma at 5 mg/kg, po and 2 mg/kg, iv; type: ADME, organism-based
[12] = Plasma clearance in rat at 5 mg/kg, po and 2 mg/kg, iv; type: ADME, organism-based

IC50 [6] [nM] | SMILES | also measured
21 | COc1cc(OC2CCN(C)CC2)c2c(Nc3ccc(F)c(Cl)c3)ncnc2c1 | inhibition in vivo at 100 mg/kg [1]: 60%; fraction unbound [2]: 0.0251; Vd [3]: 12.3 L/kg; clearance [4]: 20 mL/min/kg; bioavailability [5]: 63%; bioavailability [7]: 103%; half-life [8]: 5.2 h; Vd [9]: 8.2 L/kg; half-life [10]: 2.9 h; fraction unbound [11]: 0.0311; clearance [12]: 66 mL/min/kg
873 | COc1cc(OC2CCN(C(C)=O)CC2)c2c(Nc3ccc(F)c(Cl)c3)ncnc2c1 | –
9600 | COc1cc(OC2CCN(S(C)(=O)=O)CC2)c2c(Nc3ccc(F)c(Cl)c3)ncnc2c1 | –
8070 | COc1cc(OC(C)C)c2c(Nc3ccc(F)c(Cl)c3)ncnc2c1 | –
3 | CN1CCC(Oc2cccc3ncnc(Nc4ccc(F)c(Cl)c4)c23)CC1 | –
671 | COCCOc1cc(OC2CCOCC2)c2c(Nc3ccc(F)c(Cl)c3)ncnc2c1 | –
< 2 | CCCN1CCC(Oc2cc(OC)cc3ncnc(Nc4ccc(F)c(Cl)c4)c23)CC1 | –
1380 | COc1cc(OC2CCOCC2)c2c(Nc3ccc(F)c(Cl)c3)ncnc2c1 | –
66 | CN1CCN(CCCOc2cc(OC3CCOCC3)c3c(Nc4ccc(F)c(Cl)c4)ncnc3c2)CC1 | –
10 | COc1cc(OC2CCNCC2)c2c(Nc3ccc(F)c(Cl)c3)ncnc2c1 | –
< 2 | CCN1CCC(Oc2cc(OC)cc3ncnc(Nc4ccc(F)c(Cl)c4)c23)CC1 | –
225 | COc1ccc2ncnc(Nc3ccc(F)c(Cl)c3)c2c1OC1CCN(C)CC1 | –

From ChEMBL document CHEMBL1146052, “Inhibitors of epidermal growth factor receptor tyrosine kinase: Novel C-5 substituted anilinoquinazolines designed to target the ribose pocket” (Bioorg Med Chem Lett, 2006)
